Measured values as given in patent EP1908472A1, “Silicon derivatives for PET imaging” (Bayer Schering Pharma Aktiengesellschaft, priority 2006, dated 2008).

Key:
[1] = Hydrolytic stability of 19F fluorosilanes (hydrolysis to the hydroxy compound) at physiological pH; format: physicochemical; settings: for remaining at 6 h / half-life: buffer; for remaining at 6 h: fraction of intact 19F compound after 6 hours under hydrolytic conditions at pH 7; for half-life: hydrolytic halflife, physiological pH (7.0), 19F compound, calculated from the kinetics; for rel. stability: ratio of hydrolytic halflife to radioactive halflife of 18-F (1.83 hours), pH 7.0
Method: The time dependent degree of hydrolysis of compounds of formula I in which X is a fluorine atom of isotope 19 to compounds of formula I in which X is a hydroxy group was determined at physiological pH (7.0). From the kinetics the hydrolytic halflife (t1/2) measured in hours [h] of compounds of formula I in which X is a fluorine atom of isotope 19 were calculated (Table 1, column 2).
The ratio of the hydrolytic halflifes of compounds of formula I in which X is a fluorine atom of isotope 19 and the radioactive halflife of the 18-F isotope (1.83 hours) is defined as relative stability (Table 1, column 3).
After 6 hours 90% of the 18-F isotope have been decayed.
Compounds of formula I in which X is a fluorine atom of isotope 18 are considered as useful for PET applications if the relative stability of their analogs bearing a fluorine atom of isotope 19 exceed a factor of four and if at least 50% of these compounds remain intact after 6 hours under hydrolytic conditions at pH 7.

[2] = rats allowed to inhale the gas; shows fast release of fluoride in vivo; cited from earlier work

| SMILES | remaining at 6 h [1] | half-life [1] | rel. stability [1] | uptake of ^18F in the bone [2] |
| --- | --- | --- | --- | --- |
| CC(C)[Si](F)(c1ccc(COC2CCCCO2)cc1)C(C)C (racemic) [3a - F, (RS)-Fluoro-diisopropyl-[4-(tetrahydro-pyran-2-yloxymethyl)-phenyl]-silane] | 90% | 49.4 h | 27.0 | – |
| CC(C)[Si](F)(c1ccc(CCOC2CCCCO2)cc1)C(C)C (racemic) [3b - F, (RS)-Fluoro-diisopropyl-{4-[2-(tetrahydro-pyran-2-yloxy)-ethyl]-phenyl}-silane] | 94% | 76.4 h | 41.8 | – |
| CC(C)[Si](F)(c1ccc(CCCOC2CCCCO2)cc1)C(C)C (racemic) [3c - F, (RS)-Fluoro-diisopropyl-{4-[3-(tetrahydro-pyran-2-yloxy)-propyl]-phenyl}-silane] | 95% | 99.9 h | 54.6 | – |
| CC(C)[Si](F)(c1cccc(CCCOC2CCCCO2)c1)C(C)C (racemic) [3d - F, (RS)-Fluoro-diisopropyl-{3-[3-(tetrahydro-pyran-2-yloxy)-propyl]-phenyl}-silane] | > 95% | > 100 h | > 54.6 | – |
| CC(C)[Si](F)(c1cccc(CCOC2CCCCO2)c1)C(C)C (racemic) [3e - F, (RS)-Fluoro-diisopropyl-{3-[2-(tetrahydro-pyran-2-yloxy)-ethyl]-phenyl}-silane] | > 95% | > 100 h | > 54.6 | – |
| F[Si](c1ccccc1)(c1ccccc1)c1ccc(CCOC2CCCCO2)cc1 (racemic) [3f - F, (RS)-Fluoro-diphenyl-{4-[2-(tetrahydro-pyran-2-yloxy)-ethyl]-phenyl}-silane] | < 1% | 0.07 h | 0.04 | – |
| CC(C)C[Si](F)(CC(C)C)c1ccc(COC2CCCCO2)cc1 (racemic) [Compound 3g-F, (RS)-Fluoro-diisobutyl-[4-(tetrahydro-pyran-2-yloxymethyl)-phenyl]-silane] | 59% | 8.1 h | 4.5 | – |
| CC(C)C[Si](F)(CC(C)C)c1ccc(CCOC2CCCCO2)cc1 (racemic) [Compound 3h-F, (RS)-Fluoro-diisobutyl-{4-[2-(tetrahydro-pyran-2-yloxy)-ethyl]-phenyl}-silane] | 79% | 19.2 h | 10.7 | – |
| CC(C)[Si](F)(c1ccc(CO)cc1)C(C)C [4a -F, [4-(Fluoro-diisopropyl-silanyl)-phenyl]-methanol] | 85% | 28.1 h | 15.4 | – |
| CC(C)[Si](F)(c1ccc(CCO)cc1)C(C)C [4b - F, 2-[4-(Fluoro-diisopropyl-silanyl)-phenyl]-ethanol] | 84% | 66.8 h | 36.5 | – |
| CC(C)[Si](F)(c1ccc(CCCO)cc1)C(C)C [4c - F, 3-[4-(Fluoro-diisopropyl-silanyl)-phenyl]-propan-1-ol] | 90% | > 100 h | > 54.6 | – |
| CC(C)[Si](F)(c1cccc(CCCO)c1)C(C)C [4d - F, 3-[3-(Fluoro-diisopropyl-silanyl)-phenyl]-propan-1-ol] | 89% | 43.3 h | 23.7 | – |
| CC(C)[Si](F)(c1cccc(CCO)c1)C(C)C [4e - F, 2-[3-(Fluoro-diisopropyl-silanyl)-phenyl]-ethanol] | 78% | 23.3 h | 12.7 | – |
| CC(C)[Si](F)(c1ccc(C(=O)O)cc1)C(C)C [5a - F, 4-(Fluoro-diisopropyl-silanyl)-benzoic acid] | 66% | 10.9 h | 6.1 | – |
| CC(C)[Si](F)(c1ccc(CC(=O)O)cc1)C(C)C [5b - F, [4-(Fluoro-diisopropyl-silanyl)-phenyl]-acetic acid] | 82% | 24.7 h | 13.5 | – |
| CC(C)[Si](F)(c1ccc(CCC(=O)O)cc1)C(C)C [5c - F, 3-[4-(Fluoro-diisopropyl-silanyl)-phenyl]-propionic acid] | 92% | 59 h | 32.2 | – |
| CC(C)[Si](F)(c1cccc(CCC(=O)O)c1)C(C)C [5d - F, 3-[3-(Fluoro-diisopropyl-silanyl)-phenyl]-propionic acid] | 81% | 22.2 h | 12.1 | – |
| CC(C)[Si](F)(c1cccc(CC(=O)O)c1)C(C)C [5e - F, [3-(Fluoro-diisopropyl-silanyl)-phenyl]-acetic acid] | 78% | 20 h | 10.9 | – |
| CC(C)C[Si](F)(CC(C)C)c1ccc(C(=O)O)cc1 [5g - F, 4-(Fluoro-diisobutyl-silanyl)-benzoic acid] | 31% | 3.5 h | 1.9 | – |
| CC(C)C[Si](F)(CC(C)C)c1ccc(CC(=O)O)cc1 [5h - F, [4-(Fluoro-diisobutyl-silanyl)-phenyl]-acetic acid] | 61% | 8.7 h | 4.8 | – |
| CC(C)[Si](F)(CCCNC(=O)c1ccccc1)C(C)C [22 - F, N-[3-(Fluoro-diisopropyl-silanyl)-propyl]-benzamide] | 83% | 33.6 h | 18.4 | – |
| CC(C)C[Si](F)(CCCCC(=O)Nc1ccccc1)CC(C)C [30a - 1F, 5-(Fluoro-diisobutyl-silanyl)-pentanoic acid phenylamide] | 71% | 13.8 h | 7.5 | – |
| C[Si](C)(C)[18F] [^18F-Fluorotrimethylsilane] | – | – | – | extensive uptake of ^18F in the bone |
